{"source": "patent US11034839B2", "about": "“Compounds, linked with haptens, for the detection of senescent cells” (THE UNIVERSITY OF MANCHESTER, priority 2016, dated 2021)", "key": {"[1]": {"test_system": "senescent cells in irradiated human laryngeal tumors and mouse lung adenomas", "test": "Histochemical staining of paraffin embedded, formalin fixed tissue sections (same method as for SBB)", "conditions": "FFPE sections of irradiated human laryngeal tumors and mouse lung adenomas; dye in 70% ethanol, 10 min", "from_the_text": "In the following comparative example 1 the histochemical dye SBB was used to detect senescent cells in tissue sections by the histochemical method previously described [Georgakopoulou et al, Aging (Albany N.Y.) 2013].\nTissue sections were obtained from paraffin embedded, formalin fixed: (a) irradiated human laryngeal tumors and (b) mouse lung adenomas, with established presence of senescent cells. Subsequently, they were immobilized on glass microscopy slides by standard procedures and processed as follows: • a. Deparaffinization for 5 min at room temperature in xylene. • b. Gradual rehydration in solutions of descending concentration of ethanol (100%, 80%, 70%, 50% v/v) and finally in TBS (Tris-buffered saline) or PBS (Phosphate-buffered saline) solution. • c. The SBB dye was diluted in 70% ethanol (v/v), filtered and then applied on tissue sections for 10 min. • d. Quick wash in 50% (v/v) ethanol. • e. Transfer and wash in TBS or PBS solution. • f. Counterstain with Hematoxylin or Nuclear Fast Red, followed by mounting with glycerol and sealed with a cover slip. • g. Microscopy observation. […]"}, "[2]": {"test_system": "senescent cells (lipofuscin)", "conditions": "Georgakopoulou et al, 2013; cited from earlier work"}, "[3]": {"test_system": "senescent cells in biological systems with established senescence", "test": "Quantitative analysis and concordance of SA-b-gal, SBB and GL13 staining", "conditions": "FIG. 15"}, "lipofuscin": {"test_system": "lipofuscin", "conditions": "Georgakopoulou et al., 2013; cited from earlier work"}, "Ethanol solubility": {"test": "Ethanol solubility", "format": "physicochemical"}, "[4]": {"test_system": "HeLa cancer cells and near normal Li-Fraumeni fibroblasts", "test": "False-positive studies (cell confluency, serum starvation)", "format": "cell-based, human", "conditions": "compared with SA-b-gal, FIGS. 17 and 18", "from_the_text": "The in vitro models comprised seven cellular systems. […] The same cellular system was used at early passages that underwent SIPS upon y-irradiation and was compared in relation to non-irradiated counterparts. Another set of models comprised two inducible Saos2 Tet-ON osteosarcoma cell lines carrying p53 and p21^WAF1/Cip1, respectively, two well established effectors of senescence (Georgakopoulou et al., 2013; Galanos et al., 2016). Finally, the U2OS-E2F1 ER, U205-Cdt1 Tet-ON and HBECs-Cdc6 Tet-ON inducible systems that undergo SIPS due to oncogenic stress signals were also utilized (Petrakis et al., 2016; Liontos et al., 2007; Liontos et al., 2009). Parental cell lines were obtained either directly from ATCC or from collaborating laboratories that generated them. In addition, the human cancer cell line HeLa and near normal Li-Fraumeni fibroblasts (Galanos et al., 2016) were also employed as control cell lines for the specificity of staining of the SBB compounds."}, "[5]": {"test_system": "lipofuscin rich senescent cells, induced Saos2-p21WAF1/Cip1 Tet-ON cells", "test": "Immunohistochemistry staining in induced Saos2-p21WAF1/Cip1 Tet-ON cellular system", "format": "cell-based, human", "conditions": "FIG. 13", "description": "• 1. Compound (LG13) • 2. 100% ethanol (100% EtOH) • 3. Parafilm • 4. Fritted glass filter of medium porosity • 5. Airtight Dye Container 2.2.2 General Procedure: • 1. Dissolve 40 mg of the compound (LG13) in 7.4 ml 100% EtOH in a glass beaker and cover it with parafilm. • 2. Incubate at 56° C. in a waterbath for 120 min until the compound is completely dissolved. 2.3. General Method for Compound (LG13) Staining 2.3.1 Materials: • 1. Xylene • 2. […] Syringe • 4. 13 mm filter, membrane 0.22 μm • 5. Soft paper (dry or dipped in ethanol) • 6. Anti-biotin antibody ([Hyb-8] ab201341, Abcam) • 7. Ultravision Quanto Detection System HRP DAB kit (Cat no: TL-125-QHD) • 8. Glycerol (Sigma-Aldrich) • 9. Tris Buffered Saline (TBS; 10×): 1.5 M NaCl, 0.1 M Tris-HCl, pH 7.4. Store at 4° C. • 10. 0.5% Triton X/TBS: 0.5 ml Triton X diluted in 99.5 ml TBS • 11. Mounting media Glycergel (DakoCytomation). • 12. Light Microscope • 13. Anti-p21^WAF1/Cip1 mouse primary antibody [(F-5)(sc-6246) Santa-Cruz] • 14. Anti-p16^INK4A mouse primary antibody [(sc-74401) Santa-Cruz] • 15. Anti-Ki67 rabbit polyclonal antibody [ab16667, Abcam] • 16. Secondary goat anti-mouse antibody Alexa Fluor 568 conjugated [Thermo Fisher Scientific (Cat no: A-11004)] • 17. DAPI (4′,6-Diamidino-2-Phenylindole, Dihydrochloride) [Thermo Fisher Scientific (Cat no: D1306)] • 18. Fluorescence microscope 2.3.2 General Procedures: 2.3.2.1 General Staining Protocol for Cells Mounted on Coverslips • 1. Wash ×1 in TBS for 5 min at RT. • 2. Block the endogenous hydrogen peroxidase, using the UltraVision Hydrogen Peroxide Block included in the Ultravision Quanto Detection System HRP DAB kit (Cat no: TL-125-QHD) for 10 min at RT and in dark conditions. • 3. Wash ×2 in TBS for 30 sec and ×1 for 5 min at RT. • 4. Wash ×1 in EtOH 50% for 5 min at RT. • 5. Wash ×1 EtOH 70% for 5 min at RT. • 6. […] The staining reaction is monitored under the light microscope until detection of the signal (average time 5-8 min). • 8. […] The staining reaction is monitored under the light microscope until detection of the dark brown signal (average time 30 sec-1 min) at RT 1. • 20. […]"}}, "data": [{"compound": "CC1(C)Nc2cccc3c(/N=N/c4ccc(/N=N/c5ccccc5)c5ccccc45)ccc(c23)N1", "note": "[SBB, Sudan Black B]", "values": [{"measurement": "histochemical staining of senescent cells", "setting": "[1]", "value": "senescent cells are clearly stained"}, {"measurement": "selectivity of lipofuscin stain for senescent cells", "setting": "[2]", "value": "highly selective for the detection of senescent cells"}, {"measurement": "specificity compared among SA-b-gal, SBB and GL13 staining", "setting": "[3]", "value": "concordance of specificity"}, {"measurement": "effect of staining on lipofuscin autofluorescence", "setting": "lipofuscin", "value": "quenched"}, {"measurement": "ethanol solubility", "setting": "Ethanol solubility", "value": "ethanol solubility problems"}, {"measurement": "false-positive staining due to serum starvation and cell confluency", "setting": "[4]", "value": "deprived of the false-positive staining disadvantages"}]}, {"compound": "CC1(CCOC(=O)CCCC[C@H]2SC[C@H]3NC(=O)N[C@H]32)Nc2cccc3c(/N=N/c4ccc(/N=N/c5ccccc5)c5ccccc45)ccc(c23)N1", "note": "(stereo partly drawn) [LG39, 2-(2-Methyl-6-((E)-(4-((E)-phenyldiazenyl)naphthalen-1-yl)diazenyl)-2,3-dihydro-1H-perimidin-2-yl)ethyl 5-((3aR,4R,6aS)-2-oxohexahydro-1H-thieno[3,4-d]imidazol-4-yl)pentanoate]", "values": [{"measurement": "detection of lipofuscin rich senescent cells by immunohistochemistry staining", "setting": "[5]", "value": "detect robustly lipofuscin rich senescent cells"}]}, {"compound": "CC1(C)Nc2cccc3c(/N=N/c4ccc(/N=N/c5ccc(CCOC(=O)CCCC[C@H]6SC[C@H]7NC(=O)N[C@H]76)cc5)c5ccccc45)ccc(c23)N1", "note": "[LG52, 4-((E)-(4-((E)-(2,2-Dimethyl-2,3-dihydro-1H-perimidin-6-yl)diazenyl)naphthalen-1-yl)diazenyl)phenethyl 5-((3aR,4R,6aS)-2-oxohexahydro-1H-thieno[3,4-d]imidazol-4-yl)pentanoate]", "values": [{"measurement": "detection of lipofuscin rich senescent cells by immunohistochemistry staining", "setting": "[5]", "value": "detect robustly lipofuscin rich senescent cells"}]}, {"compound": "CC1(CCCOC(=O)CCCC[C@H]2SC[C@H]3NC(=O)N[C@H]32)Nc2cccc3c(/N=N/c4ccc(/N=N/c5ccccc5)c5ccccc45)ccc(c23)N1", "note": "(stereo partly drawn) [LG56, 3-(2-Methyl-6-((E)-(4-((E)-phenyldiazenyl)naphthalen-1-yl)diazenyl)-2,3-dihydro-1H-perimidin-2-yl)propyl 5-((3aR,4R,6aS)-2-oxohexahydro-1H-thieno[3,4-d]imidazol-4-yl)pentanoate]", "values": [{"measurement": "detection of lipofuscin rich senescent cells by immunohistochemistry staining", "setting": "[5]", "value": "detect robustly lipofuscin rich senescent cells"}]}]}
